The numbers were not newly measured in patent publication US20100022462A1, “APPETITE S[…] COLON CLEANSING COMPOSITION” (priority 2008, published 2010), which cites them from elsewhere.

The subject of this data set is lipase. The following applies: background statement on the marketed drug; no test conditions given.

As to `CCCCCCCCCCC[C@@H](C[C@@H]1OC(=O)[C@H]1CCCCCC)OC(=O)[C@H](CC(C)C)NC=O` [XENICAL, orlistat], the “decreasing dietary fat absorption” value is recorded as 30%.
